Results: patent US20190365927A1, “COMPOSITION FOR PHOTODYNAMIC THERAPY USING GENE EXPRESSING FLUORESCENT PROTEIN AND PHOTOSENSITIZER, AND PHOTODYNAMIC THERAPY METHOD USING SAME” (priority 2017, published 2019)

What was measured:
GFP cells (GFP-H460) = test: Experiment using rat cannulation, counting GFP-cancer cells in blood; format: in vivo; conditions: cells pretreated with 100 μM RB, injected IV into SD rats, 473 nm 80 mW for 5 minutes at cannulated tubing
Description: (1) GFP cells (GFP-H460) were seeded into two 100-mm dishes at a concentration of 1×10^7 cells/ml. On the next day, 100 μM of rose bengal (RB) was applied thereto (in the subsequent procedure, light exposure was avoided as much as possible). In 4 hours after RB treatment, the cells were harvested using trypsin, suspended in FBS pre-culture medium at 2×10^6 cells/300 μl, and placed in a 1.5 ml tube.
Six out of 10 8 weeks aged SD rats were injected in IV (tail) manner with the cell solution. The […] sections of the 5 SD rats were incised. The carotid artery and venous vein were discovered and cannulated using a 279 μm ID×609 μm OD×152 μm wall sized polyethylene tubing (BD, 427401) wet with heparin. Thus, blood flow was carried out through the tubing. Irradiation of 473 nm light with an intensity of 80 mW to the cannulated tubing site was performed for 5 minutes. The irradiated rats were weighed and incubated overnight in a constant-temperature constant-humid chamber. […]
1 ml of 0.1 μg/ml DAPI/PBST solution was added thereto. […] GFP-cancer cells were counted using a fluorescent microscope (Nikon, Diaphot 300), and the numbers of GFP-cancer cells according to the presence or absence of light irradiation were compared with each other. […]

eGFP+-Lgr5+ cells = test: Visualization of in vivo cell death with FLIVO probe; parameters: species or system mouse; conditions: Lgr5-EGFP-IRES-creERT2 knock-in mice, RB treatment and laser light irradiation
Description: To measure cell death in live animals, FLIVO™ probes were diluted with PBS containing 1% DMSO at doses according to animal weight. The fluorescent red probe FLIVO™ (Immunochemistry Technologies LLC, Abcys SA, Paris, France) was intravenously injected into wild type and GFP-Lgr5 mice. The mouse was euthanized after 1 hour and the colon tissue was separated therefrom. Fluorescent signals from FLIVO™ were imaged using a confocal microscope.

Structure (SMILES): O=C1OC2(c3cc(I)c(O)c(I)c3Oc3c2cc(I)c(O)c3I)c2c(Cl)c(Cl)c(Cl)c(Cl)c21 [RB, rose bengal]
- GFP-cancer cells in blood with or without light irradiation (GFP cells (GFP-H460)): only GFP cells were specifically killed
- cell death signal in eGFP+-Lgr5+ cell region versus adjacent low-GFP-expression region (eGFP+-Lgr5+ cells): stronger
